Test results reported in patent US9540314B2, “N-cycloalkyl-N-[(cycloalkenylphenyl)methylene]-(thio) carboxamide derivatives” (BAYER INTELLECTUAL PROPERTY GMBH, priority 2012, dated 2017).
Marks after values point to notes of the source that are not given here. One block for each molecule: values may come before it.

Key:
Uromyces appendiculatus = assay: In vivo preventive test on Uromyces appendiculatus (bean rust); settings: bean plants; for protection: Table K2 comparison with saturated analogues, 500 ppm, preventive, 11 days after contamination
Method: (§1) The active ingredients tested are prepared by homogenization in a mixture of acetone/tween/DMSO, and then diluted with water to obtain the desired active material concentration.
(§2) After 24 hours, the plants are contaminated by spraying the leaves with an aqueous suspension of Uromyces appendiculatus spores (150 000 spores per mL). The spores are collected from infected plants and are suspended in water containing 2.5 mL/L of Tween 80 at 10%. The contaminated bean plants are incubated for 24 hours at 20° C. and at 100% relative humidity, and then for 10 days at 20° C. and at 70-80% relative humidity.
Grading (% of efficacy) is carried out 11 days after the contamination, in comparison with the control plants.

[1] = log P by HPLC on a reversed-phase column (C 18), EEC Directive 79/831 Annex V.A8; format: physicochemical; settings: HPLC C 18, 40° C., 0.1% aqueous formic acid and acetonitrile; for logP: Table 1, several values = mixture of 2 or more isomers; for chromatographic logP: reversed-phase HPLC column (C 18), Table 2, compounds of formula (IIa)
Method: In table 1, the log P values were determined in accordance with EEC Directive 79/831 Annex V.A8 by HPLC (High Performance Liquid Chromatography) on a reversed-phase column (C 18), using the method described below:
Temperature: 40° C.; Mobile phases: 0.1% aqueous formic acid and acetonitrile; linear gradient from 10% acetonitrile to 90% acetonitrile.
Calibration was carried out using unbranched alkan-2-ones (comprising 3 to 16 carbon atoms) with known log P values (determination of the log P values by the retention times using linear interpolation between two successive alkanones). lambda-max-values were determined using UV-spectra from 200 nm to 400 nm and the peak values of the chromatographic signals.

Puccinia recondita = assay: In vivo preventive test on Puccinia recondita (brown rust on wheat); settings: 500 ppm of active ingredient; wheat plants, preventive spray; grading 12 days after contamination
Method: as §1
Wheat plants (“Scipion” variety), sown in starter cups on a 50/50 peat soil pozzolana substrate and grown at 22° C., are treated at the 1 leaf stage (10 cm height) by spraying with the active ingredient prepared as described above. Plants, used as controls, are treated with the mixture of acetone/tween/DMSO/water not containing the active material.
as §2, with “of Puccinia recondita” for “of Uromyces appendiculatus”, “spores (100” for “spores (150”, “from an” for “from”, “infected plant” for “infected plants”, “contaminated wheat” for “contaminated bean”
Grading (% of efficacy) is carried out 12 days after the contamination, in comparison with the control plants.
Under these conditions, good (at least 70%) to total protection is observed at a dose of 500 ppm of active ingredient with the following compounds from table I: […]

Pyrenophora teres = assay: In vivo preventive test on Pyrenophora teres (barley); settings: Table H2; 100 ppm, barley plants, preventive, grading 14 days after contamination
Method: as §1
Barley plants (“Plaisant” variety), sown in starter cups on a 50/50 peat soil pozzolana substrate and grown at 22° C., are treated at the 1 leaf stage (10 cm height) by spraying with the active ingredient prepared as described above. Plants, used as controls, are treated with the mixture of acetone/tween/DMSO/water not containing the active material.
After 24 hours, the plants are contaminated by spraying the leaves with an aqueous suspension of Pyrenophora teres spores (12 000 spores per mL). The spores are collected from a 12-day-old culture.
The contaminated barley plants are incubated for 48 hours at 20° C. and at 100% relative humidity, and then for 12 days at 20° C. at 70-80% relative humidity.
Grading (% of efficacy) is carried out 14 days after the contamination, in comparison with the control plants.
Under these conditions, good (at least 70%) to total protection is observed at a dose of 500 ppm of active ingredient with the following compounds from table H1: […]

[2] = dose 100 ppm, comparison with saturated analogues (table K2)
[3] = dose 500 ppm, comparison with saturated analogues (table K2)
[4] = 500 ppm of active ingredient, preventive spray, grading 11 days after contamination (table K1)

SMILES: Cn1cc(C(=O)N(Cc2ccccc2C2CCCCC2)C2CC2)c(C(F)F)n1 [CMP5, N-(2-cyclohexylbenzyl)-N-cyclopropyl-3-(difluoromethyl)-1-methyl-1H-pyrazole-4-carboxamide, reference compound]
- protection (Uromyces appendiculatus): poor (less than 20%) protection or plant damages
- Efficacy (Uromyces appendiculatus; [2]): 0%

SMILES: CC1CC=C(c2ccc(F)cc2CN(C(=O)c2c(C(F)F)nn(C)c2Cl)C2CC2)CC1 (racemic) [I.47]
- logP [1]: 5.14
- Efficacy (Puccinia recondita): 81%

SMILES: Cn1cc(C(=O)N(Cc2cc(Cl)ccc2C2=CCCCCC2)C2CC2)c(C(F)F)n1 [I.57]
- logP [1]: 4.87
- Efficacy (Pyrenophora teres): 79%

SMILES: Cn1nc(C(F)F)c(C(=O)N(Cc2ccccc2C2CCCCC2)C2CC2)c1F [CMP6, N-(2-cyclohexylbenzyl)-N-cyclopropyl-3-(difluoromethyl)-5-fluoro-1-methyl-1H-pyrazole-4-carboxamide, reference compound]
- protection (Uromyces appendiculatus): poor (less than 20%) protection or plant damages
- Efficacy (Uromyces appendiculatus; [2]): 38^(d) %

SMILES: Cn1nc(C(F)F)c(C(=O)N(Cc2cc(Cl)ccc2C2=CCCCC2)C2CC2)c1F [I.41]
- logP [1]: 4.88

- chromatographic logP [1]: 1.72
SMILES: CC(NC1CC1)c1ccccc1C1=CCCC1 (stereo not shown) [IIa.1, N-{1-[2-(cyclopent-1-en-1-yl)phenyl]ethyl}cyclopropanamine]

- chromatographic logP [1]: 1.45
SMILES: Clc1ccc(C2=CCCCC2)cc1CNC1CC1 [IIa.8, N-[2-chloro-5-(cyclohex-1-en-1-yl)benzyl]cyclopropanamine]

SMILES: CC1CC=C(c2ccc(F)cc2CN(C(=S)c2c(C(F)F)nn(C)c2Cl)C2CC2)CC1 (racemic) [I.48]
- logP [1]: 5.77

SMILES: Cn1cc(C(=O)N(Cc2cc(C3=CCCCC3)ccc2Cl)C2CC2)c(C(F)F)c1 [I.36]
- logP [1]: 4.93

SMILES: Cn1cc(C(=O)N(Cc2cc(C3=CCCC3)ccc2Cl)C2CC2)c(C(F)F)n1 [I.10]
- logP [1]: 4.14

- chromatographic logP [1]: 1.19
SMILES: C1=C(c2ccccc2CNC2CC2)CCC1 [IIa.2, N-[2-(cyclopent-1-en-1-yl)benzyl]cyclopropanamine]

- chromatographic logP [1]: 1.39
SMILES: Clc1ccc(C2=CCCC2)cc1CNC1CC1 [IIa.5, N-[2-chloro-5-(cyclopent-1-en-1-yl)benzyl]cyclopropanamine]

SMILES: O=C(c1ccsc1I)N(Cc1cc(Cl)ccc1C1=CCCCCC1)C1CC1 [I.58]
- logP [1]: 6.27

SMILES: Cn1cc(C(=O)N(Cc2cc(Cl)ccc2C2=CCCCC2)C2CC2)c(C(F)F)n1 [I.39]
- logP [1]: 4.44

SMILES: Cn1nc(C(F)F)c(C(=O)N(Cc2cc(C3=CCCC3)ccc2Cl)C2CC2)c1Cl [I.8]
- logP [1]: 4.82
- Efficacy (Pyrenophora teres): 71%

SMILES: Cn1nc(C(F)F)c(C(=O)N(Cc2cc(Cl)ccc2C2=CCCC2)C2CC2)c1Cl [I.23]
- logP [1]: 4.74

- chromatographic logP [1]: 1.45
SMILES: C1=C(c2ccccc2CNC2CC2)CCCCC1 [IIa.9, N-[2-(cyclohept-1-en-1-yl)benzyl]cyclopropanamine]

SMILES: O=C(c1ccsc1I)N(Cc1cc(C2=CCCC2)ccc1Cl)C1CC1 [I.12]
- logP [1]: 5.51

SMILES: Cn1cc(C(=O)N(Cc2cc(Cl)ccc2C2=CCCC2)C2CC2)c(C(F)F)n1 [I.22]
- logP [1]: 4.06
- Efficacy (Pyrenophora teres): 71%

SMILES: Cn1cc(C(=O)N(Cc2cc(C3=CCCCC3)ccc2Cl)C2CC2)c(C(F)F)n1 [I.37]
- logP [1]: 4.46

SMILES: Cn1nc(C(F)F)c(C(=O)N(Cc2ccccc2C2CCCC2)C2CC2)c1F [CMP4, N-(2-cyclopentylbenzyl)-N-cyclopropyl-3-(difluoromethyl)-5-fluoro-1-methyl-1H-pyrazole-4-carboxamide, reference compound]
- protection (Uromyces appendiculatus): poor (less than 20%) protection or plant damages
- Efficacy (Uromyces appendiculatus; [2]): 100%

SMILES: Cn1nc(C(F)F)c(C(=O)N(Cc2cc(C3=CCCCC3)ccc2Cl)C2CC2)c1Cl [I.34]
- logP [1]: 5.14
- Efficacy (Pyrenophora teres): 79%

- chromatographic logP [1]: 1.56
SMILES: CC(NC1CC1)c1cc(F)ccc1C1=CCCC1 (stereo not shown) [IIa.4, N-{1-[2-(cyclopent-1-en-1-yl)-5-fluorophenyl]ethyl}cyclopropanamine]

- chromatographic logP [1]: 1.28
SMILES: Clc1ccc(C2=CCCC2)c(CNC2CC2)c1 [IIa.3, N-[5-chloro-2-(cyclopent-1-en-1-yl)benzyl]cyclopropanamine]

SMILES: Cn1nc(C(F)F)c(C(=O)N(Cc2cc(C3=CCCC3)ccc2Cl)C2CC2)c1F [I.9]
- logP [1]: 4.59
- Efficacy (Pyrenophora teres): 79%

SMILES: Cn1cc(C(=O)N(Cc2cc(Cl)ccc2C2=CCCCCC2)C2CC2)c(C(F)F)c1 [I.55]
- logP [1]: 5.34

SMILES: O=C(c1ccsc1I)N(Cc1cc(Cl)ccc1C1=CCCC1)C1CC1 [I.21]
- logP [1]: 5.36

SMILES: Cn1nc(C(F)F)c(C(=O)N(Cc2ccccc2C2CCCCC2)C2CC2)c1Cl [CMP7, 5-chloro-N-(2-cyclohexylbenzyl)-N-cyclopropyl-3-(difluoromethyl)-1-methyl-1H-pyrazole-4-carboxamide, reference compound]
- protection (Uromyces appendiculatus): poor (less than 20%) protection or plant damages
- Efficacy (Uromyces appendiculatus; [2]): 0%
- Efficacy (Uromyces appendiculatus; [3]): 13%

- chromatographic logP [1]: 1.37
SMILES: C1=C(c2ccccc2CNC2CC2)CCCC1 [IIa.6, N-[2-(cyclohex-1-en-1-yl)benzyl]cyclopropanamine]

SMILES: Cn1cc(C(=O)N(Cc2cc(Cl)ccc2C2=CCCCC2)C2CC2)c(C(F)F)c1 [I.40]
- logP [1]: 4.93

SMILES: O=C(c1ccsc1I)N(Cc1ccccc1C1=CCCCCC1)C1CC1 [I.52]
- logP [1]: 5.78
- Efficacy (Uromyces appendiculatus; [4]): 75%

SMILES: Cn1cc(C(=O)N(Cc2ccccc2C2=CCCC2)C2CC2)c(C(F)F)c1 [I.5]
- logP [1]: 4.13

SMILES: Cn1nc(C(F)F)c(C(=O)N(Cc2cc(C3=CCCCC3)ccc2Cl)C2CC2)c1F [I.33]
- logP [1]: 4.92
- Efficacy (Pyrenophora teres): 86%

- chromatographic logP [1]: 1.71
SMILES: Clc1ccc(C2=CCCCCC2)c(CNC2CC2)c1 [IIa.10, N-[5-chloro-2-(cyclohept-1-en-1-yl)benzyl]cyclopropanamine]

SMILES: Cn1nc(C(F)F)c(C(=O)N(Cc2ccccc2C2=CCCCC2)C2CC2)c1Cl [I.29]
- logP [1]: 4.66
- Efficacy (Puccinia recondita): 81%
- Efficacy (Uromyces appendiculatus; [4]): 84%
- Efficacy (Uromyces appendiculatus; [2]): 35%
- Efficacy (Uromyces appendiculatus; [3]): 84%

SMILES: Cn1cc(C(=O)N(Cc2cc(Cl)ccc2C2=CCCC2)C2CC2)c(C(F)F)c1 [I.24]
- logP [1]: 4.58

SMILES: Cn1nc(C(F)F)c(C(=O)N(Cc2cc(Cl)ccc2C2=CCCCCC2)C2CC2)c1F [I.54]
- logP [1]: 5.31

SMILES: O=C(c1ccsc1I)N(Cc1cc(Cl)ccc1C1=CCCCC1)C1CC1 [I.42]
- logP [1]: 5.78

SMILES: Cn1nc(C(F)F)c(C(=O)N(Cc2cc(Cl)ccc2C2=CCCC2)C2CC2)c1F [I.20]
- logP [1]: 4.54
- Efficacy (Pyrenophora teres): 97%

SMILES: Cn1nc(C(F)F)c(C(=O)N(Cc2cc(Cl)ccc2C2=CCCCCC2)C2CC2)c1Cl [I.56]
- logP [1]: 5.54

SMILES: Cn1cc(C(=O)N(Cc2cc(C3=CCCC3)ccc2Cl)C2CC2)c(C(F)F)c1 [I.11]
- logP [1]: 4.63

SMILES: Cn1nc(C(F)F)c(C(=O)N(Cc2cc(Cl)ccc2C2=CCCCC2)C2CC2)c1Cl [I.38]
- logP [1]: 5.11

SMILES: O=C(c1ccsc1I)N(Cc1cc(C2=CCCCC2)ccc1Cl)C1CC1 [I.35]
- logP [1]: 5.87

- chromatographic logP [1]: 1.45
SMILES: Clc1ccc(C2=CCCCC2)c(CNC2CC2)c1 [IIa.7, N-[5-chloro-2-(cyclohex-1-en-1-yl)benzyl]cyclopropanamine]

SMILES: O=C(c1ccsc1I)N(Cc1ccccc1C1=CCCC1)C1CC1 [I.6]
- logP [1]: 4.85
- Efficacy (Uromyces appendiculatus; [4]): 88%
